The record followed here is patent US6472386B1, “Cyclic diamine compound with 5-membered ring groups” (Kowa Co., Ltd., priority 2001, dated 2002).

The assay relates to adhesion of U937 cells to HUVEC stimulated by IL-1β or TNFα. The experiment in a line: Inhibitory effect on cell adhesion (U937 cells adhering to stimulated HUVEC). The format is cell-based. Conditions: Homo sapiens, compound at 1 μM. On the procedure:
This test was conducted by reference to the method of Ross et al. (J. Biol. Chem., 267, 8537-8543 (1992)). More specifically, after human umbilical venous endothelial cells (HUVEC) were cultured on a 48-well plate to confluent growth, IL-1β or TNFα was added thereto. Upon elapsed time of 5 hours after the addition, U937, which is a human monocytic/histocytic cell fluorescence-labeled with PKH2 (product of Dainippon Pharmaceutical Co., Ltd.), was added in a proportion of 1×10^6 cells per well. After the plate was left at rest at room temperature for 1 hour, unadhered U937 was washed out and lysed in 1% Triton X-100 to measure a remaining fluorescence intensity (excitation wavelength: 480 nm; measuring wavelength: 530 nm). HUVEC and U937 were cultured in EGM-2 (product of Sanko Junyaku K.K.) and 10% FCS-containing RPMI1640, respectively. Each test agent was added to HUVEC upon the addition of IL-1β or TNFα and to U937 24 hours prior to the cell adhesion test. The inhibitory activity was calculated out according to the equation [100-(C−B)/(A−B)×100 (%)], wherein A is the number of U937 cells adhered to HUVEC stimulated by IL-1β or TNFα when no test agent was added, B is the number of U937 cells adhered to HUVEC not stimulated by IL-1β or TNFα when no test agent was added, and C is the number of U937 cells adhered to HUVEC stimulated by IL-1β or TNFα when the test agent was added. As control compounds, Test Compound 1 described in Japanese Patent Application Laid-Open No. 9-143075 and dilazep described in Japanese Patent Application Laid-Open No. 11-92382 were simultaneously evaluated.

The mark [1] stands for this setting: HUVEC stimulated by IL-1β, read-out: Percent inhibition (%) Stimulation by IL-1β.
Setting [2] is: HUVEC stimulated by TNFα, read-out: Percent inhibition (%) Stimulation by TNFα.

Where two headings read alike, the source gives them in different places.

By inhibition is commonly meant how much of the control response was suppressed.

Turning to `COc1cc(C(=O)Nc2nc(CN3CCN(Cc4csc(NC(=O)c5cc(OC)c(OC)c(OC)c5)n4)CC3)cs2)cc(OC)c1OC` [Example 8, N,N′-bis[[2-(3,4,5-Trimethoxybenzamido)-thiazol-4-yl]methyl]piperazine], the inhibition at 1 µM under setting [1] came out at 64% and the inhibition at 1 µM under setting [2] stood at 58%.

As to `COc1cc(C(=O)OCCCN2CCCN(CCCOC(=O)c3cc(OC)c(OC)c(OC)c3)CC2)cc(OC)c1OC` [Dilazep, dilazep, reference compound], the inhibition at 1 µM worked out at 0% under setting [1] and 12% under setting [2].

With `COc1cc(-c2nc(CCCN3CCCN(CCCc4csc(-c5cc(OC)c(OC)c(OC)c5)n4)CC3)cs2)cc(OC)c1OC` [Example 6, N,N′-bis[3-(2-(3,4,5-Trimethoxyphenyl)-thiazol-4-yl)propyl]homopiperazine], the inhibition at 1 µM under setting [1] was 54% and the inhibition at 1 µM under setting [2] stood at 45%.

Consider `COc1cc(C(=O)Nc2nc(CN3CCCN(Cc4csc(NC(=O)c5cc(OC)c(OC)c(OC)c5)n4)CC3)cs2)cc(OC)c1OC` [Example 9, N,N′-bis[[2-(3,4,5-Trimethoxybenzamido)-thiazol-4-yl]methyl]homopiperazine], for which the inhibition at 1 µM turned out to be 40% under setting [1] and 50% under setting [2].

As for `COc1cc(-c2cc(CN3CCN(Cc4cc(-c5cc(OC)c(OC)c(OC)c5)n(Cc5ccccc5)n4)CC3)nn2Cc2ccccc2)cc(OC)c1OC` [Example 16, N,N′-bis[[1-Benzyl-5-(3,4,5-trimethoxy-phenyl)pyrazol-3-yl]methyl]piperazine], the inhibition at 1 µM reads like this: under setting [1], 30%; under setting [2], 51%.

For the molecule `COc1cc(C#Cc2nc(CN3CCCN(Cc4csc(C#Cc5cc(OC)c(OC)c(OC)c5)n4)CC3)cs2)cc(OC)c1OC` [Example 7, N,N′-bis[[2-(3,4,5-Trimethoxyphenylethynyl)-thiazol-4-yl]methyl]homopiperazine], the inhibition at 1 µM under setting [1] turned out to be 46% and the inhibition at 1 µM under setting [2] came out at 60%.

Consider `COc1cc(-c2nc(C)c(CN3CCCN(Cc4sc(-c5cc(OC)c(OC)c(OC)c5)nc4C)CC3)s2)cc(OC)c1OC` [Example 11, N,N′-bis[[4-Methyl-2-(3,4,5-trimethoxy-phenyl)thiazol-5-yl]methyl]homopiperazine Dimaleate], for which the inhibition at 1 µM by setting is: under setting [1], 33%; under setting [2], 53%.
